According to PMC9295577, “Parasite Viability as a Measure of In Vivo Drug Activity in Preclinical and Early Clinical Antimalarial Drug Assessment” (Antimicrobial Agents and Chemotherapy, 2022):
≈ marks a conversion by molar mass, not a printed value. Where “and” joins values, the source holds several entries; their conditions need not be identical. Identical values can stand only once. Like-named read-outs stand apart in the source and are kept apart here.

Assays:
[1] = DHA pharmacokinetics in human volunteer infection study after artesunate; assay type: in vivo, humans
From the text: (§1) The human data used in this study were obtained from a randomized clinical trial (ACTRN12617001394336) ([24]) and the associated exploratory viability study ([19]). Briefly, 5 volunteers were infected by intravenous injection of blood-stage 3D7 P. falciparum parasites.
Briefly, the model is defined as follows: (2) C(t)=D×ka/Vd/F(ka−CL/Vd) ×[exp(−CL/Vd×(t−tlag))− exp(−ka×(t−tlag)) ], where Vd/F (L) is the apparent volume of distribution, tlag (h) is the lag time between administration and absorption, CL/F (L/h) is the apparent drug clearance, ka is the rate of drug absorption, and D is the dose given to each subject. The model was fit with and without a lag for the absorption. The absorption was too fast to be observed in mice, and the one-compartment open model without a lag term fit the murine data best.
A one-compartment model with a first-order absorption and a lag, fit the human data best.
We used a least-square approach when fitting the ex vivo regrowth assay to estimate the concentration of viable parasites. […] When fitting the pharmacodynamic model, we first fit the pretreatment parasite concentration data for each human subject with the parasite growth model (equation 3) and estimated the distribution of parasite stages at the time of treatment and the parasite multiplication factor (PMF) when drug is not present. For the mice, pretreatment parasitemia curves were not detailed enough to allow fitting to estimate parasite life stage distributions and PM: instead, we estimated the PMF for each mouse from the in vivo recrudescence curves after treatment (fitting a tobit regression model using R package censReg) (Fig. 3), and we estimated the life stage distribution using the life stages from flow cytometric analysis (outlined in section C in the supplemental material). […] We fit this model to all data on parasite viability and total circulating parasitemia from mice and humans simultaneously with a variety of parameters constrained to be equivalent between mice and humans, in order to test which parameters, if any, were required to be different between the two hosts in order to best explain the data. We compared these models using the likelihood ratio test (for nested models) and the Akaike information criterion (AIC). A model with fewer parameters was deemed a better fit of the data unless the likelihood ratio test yielded a P value of […] (for nested models) or the difference in AIC of >10 for nonnested models.

P. falciparum 3D7 [2] = assay: PK/PD model of parasite killing, parameters common to humans and mice; assay type: in vivo, Plasmodium falciparum
From the text: (§2) To model the drug action in both mice and humans, we used a pharmacodynamic (PD) model in which viable parasites are growing at rate g (per hour) and killed at rate κ (per hour). The dead parasites are then removed at a separate rate, δ (per hour). […] The latter observation is consistent with observations of slower parasite clearance after drug treatment in the NSG mouse model compared with human infection ([27]).
(§3) To model the cyclical growth of P. falciparum parasites, we used a previously published age-structured model of parasite growth, which tracks the distribution of parasite stages developing in time ([40]): (3) vT(a,T)+va(a,T)=0 where, v is the density of parasites at time T postinfection and age a. In this equation, subscripts indicate the partial derivative of v with respect to the subscript variable. […] The constant PMF is the parasite multiplication factor. Since parasites older than approximately 24 h of age are sequestered and no longer in circulation, the total number of circulating viable parasites (V) at any time is given by V(T)= ∫0asv(a,T)da where as is the age that parasites sequester. Importantly, as has been reported previously, the Plasmodium falciparum 3D7 strain used in these studies has an approximately 40-h blood-stage cycle ([41], [42]), so the maximum age of parasites is taken to be A=40 h.
(§4) We extended an existing age-structured model of parasite growth ([43]) to include drug killing of parasites. […] The model has two parasite compartments: one for viable parasites and one for nonviable parasites. The model of drug killing of viable parasites and host removal of nonviable parasites after treatment is defined as follows: vt(a,t)+va(a,t)= −κ(a,C(t))×v(a,t) (4) ut (a,t)=κ(a,C(t))×v(a,t)−δ×u(a,t) for a>0 where v(a,t) and u(a,t) are the density of viable and nonviable parasites of age a at time t posttreatment, respectively. […] The parameter δ is the rate of host removal of nonviable parasites. The total concentrations of circulating V(t) viable and nonviable U(t) parasites at time t are defined as follows: V(t)= ∫0aSv(a,t)da U(t)= ∫0aSu(a,t)da where as is the parasite sequestration age. We assume that the parasites are not sequestering in mice, in which case, as=A (the length of the parasite blood-stage life cycle), and that parasites sequester at as=A/2 in humans ([46]).
(§5) The maximum killing rate m(a) is a function of the parasite age since very-late-stage parasites are not killed by treatment ([47]).
(§6) As in previous studies, the age above which late-stage parasites survive treatment (aschiz) is taken to be the final 4 h of a 48-h life cycle ([48], [49]). The malaria parasite strain used in this study has a 40-h life cycle ([42], [46]), and we take aschiz as the last 4/48th of the life cycle. […]

[3] = DHA pharmacokinetics in NSG mice after oral artesunate, one-compartment model; assay type: in vivo; conditions: mouse, whole blood
Protocol: A volume of 25 μL of whole-blood samples was collected via the tail vein from individual mice at 0.75, 1.5, 3, 8, 26, 50, and 74 h from the 50-mg/kg 4-daily-dose group and at 0.75, 1.5, 3, and 8 h from the 200-mg/kg single-dose group. […] Samples were vortexed for 20 s before being stored at −80°C.
Briefly, the model is defined as follows: (2) C(t)=D×ka/Vd/F(ka−CL/Vd) ×[exp⁡(−CL/Vd×(t−tlag))− exp⁡(−ka×(t−tlag)) ], where Vd/F (L) is the apparent volume of distribution, tlag (h) is the lag time between administration and absorption, CL/F (L/h) is the apparent drug clearance, ka is the rate of drug absorption, and D is the dose given to each subject. The model was fit with and without a lag for the absorption.
We used a least-square approach when fitting the ex vivo regrowth assay to estimate the concentration of viable parasites. […] When fitting the pharmacodynamic model, we first fit the pretreatment parasite concentration data for each human subject with the parasite growth model (equation 3) and estimated the distribution of parasite stages at the time of treatment and the parasite multiplication factor (PMF) when drug is not present. […]

P. falciparum 3D7 [4] = assay: PK/PD model of parasite killing and clearance, parameters for humans; assay type: in vivo; conditions: human data from ref 19
From the text: as §2, §1, §3, §4
The maximum killing rate m(a) is a function of the parasite age since very-late-stage parasites are not killed by treatment ([47]). […]

[5] = set-up: method as in earlier work; conditions: humans, non-compartmental analysis, population mean (CV), ref 4 (supplement; Watts et al. 2020), cited from earlier work
[6] = mouse, literature, cited from earlier work
P. falciparum 3D7 [7] = assay: PK/PD model of parasite killing and clearance, parameters for mice; assay type: in vivo
From the text: as §2, §3, §4, §5, §6

[8] = tested on: P. falciparum Pf3D7^0087/N9; assay: Artesunate efficacy in the murine P. falciparum NSG model: parasitemia and parasite viability (ex vivo regrowth assay); set-up: species or system Plasmodium falciparum; conditions: NSG mice, first 24 h, single oral dose 200 vs 50 mg/kg
Protocol: Compound efficacy was assessed in the murine P. falciparum NSG model, as described by Jimenez-Diaz et al. ([38]). […] These mice had been engrafted with human erythrocytes 14 days earlier (generously provided by the Blood Bank in Zürich, Switzerland). Prior to compound treatment, mice were intravenously infected with 2 × 10^5 P. falciparum Pf3D7^0087/N9-infected erythrocytes (day 0). On day 3 after infection, mice were randomly allocated to treatments that were administered orally. Parasitemia was measured by microscopy. Chimerism was monitored by flow cytometry using anti-murine erythrocyte TER119 monoclonal antibody (Pharmingen, San Diego, CA) and SYTO-16 and then analyzed by flow cytometry in serial blood samples (2 μL) collected every day until the completion of the experiment. Parasite recrudescence was detected by microscopy.
Prior to each treatment and after 8, 24, 48, 72, 96 and 168 h, 40 μL of blood was collected using a heparinized capillary and transferred into 10 mL of 37°C preheated medium. The suspension was centrifuged (5 min at 290 × g) and the supernatant discarded.
For the ex vivo regrowth assay (ERA), 10-μL pellets of the washed mouse blood sample were processed as described above for the IRA.
To estimate parasite viability, we fitted the data from the regrowth assay with a mathematical model of parasite growth as described in reference [19]. […]

[9] = humans, one compartment model, population estimate (95% CI)
[10] = model with EC50 and γ common to humans and mice
[11] = model with Emax and γ common to humans and mice
[12] = assumes average mouse weight of 25 g

In the case of C[C@H]1[C@@H](O)O[C@@H]2O[C@@]3(C)CC[C@H]4[C@H](C)CC[C@@H]1[C@@]24OO3 [DHA, dihydroartemisinin], the half-life ([1]; human, blood, 2 mg/kg, humans, computed from CL and Vd, read-out: t1/2, half-clearance time (converted)) was 27 min, the Vd/F ([1]; human, blood, 2 mg/kg, read-out: Vd/F, apparent volume of distribution) was 166 L and the “CL/F, apparent clearance” value ([1]; humans (n = 5), artesunate 2 mg/kg, population estimate (95% CI), one-compartment model fitted to data from reference 24) was 254.5 L/h and 254.5 (144.5, 364.5) L/h. The “Dose-Normalised AUC” value ([1]; humans, one compartment model, average of volunteers, bootstrap confidence interval) was 5.34 (3.83, 6.52) μg h L^-1 mg^-1, the “ka, absorption rate” value [1, 9] was 2.29 h⁻¹ and the “tlag, lag-time” value [1, 9] was 0.62 (0.4, 0.83) h. The EC50 (P. falciparum 3D7 [2]; Plasmodium falciparum, 3D7, model with EC50 and γ common to humans and mice, different Emax, read-out: EC50, drug concentration to reach the half-maximum killing rate) was 0.0074 ng/mL (≈ 0.026 nM), the “γ, Hill coefficient” value (P. falciparum 3D7 [2]; [10]) was 0.70 and the “γ, Hill coefficient” value (P. falciparum 3D7 [2]; [11]) was 0.41. The “Emax, maximum killing rate” value (P. falciparum 3D7 [2]; model with Emax and γ common to humans and mice, different EC50s) was 1.34 h⁻¹, the half-life ([3]; mice, computed from CL and Vd, read-out: t1/2, half-clearance time (converted)) was 24 min and the Vd/F ([3]; read-out: Vd/F, apparent volume of distribution) was 0.55 L. The EC50 (P. falciparum 3D7 [4]; Plasmodium falciparum, 3D7, model with Emax and γ common to humans and mice, read-out: EC50H, drug concentration to reach the half-maximum killing rate in humans) was 0.0025 ng/mL (≈ 0.00879 nM), the “EmaxH, maximum killing rate in humans” value (P. falciparum 3D7 [4]; [10]) was 1.45 h⁻¹ and the “V/F, apparent volume of distribution” value ([5]; ART-R infection (n = 13)) was 221.1 (53.6) L. For the same molecule, the “Dose-Normalised AUC” value ([5]; ART-R infection) was 6.3 (89.9) μg h L^-1 mg^-1, the “V/F, apparent volume of distribution” value ([5]; ART-S infection (n = 9)) was 310.3 (119.4) L and the “Dose-Normalised AUC” value ([5]; ART-S infection) was 7.5 (33.2) μg h L^-1 mg^-1. The “CL/F, apparent clearance” value [6, 12] was 1.53 L/h, the “Vd/F, apparent volume of distribution” value [6, 12] was 0.91 L and the “CL/F, apparent clearance” value [6] was 1.98 L/h. The “Vd/F, apparent volume of distribution” value [6] was 0.85 L, the “t1/2, half-clearance time” value [6] was 0.41 ([50]) h and the EC50 (P. falciparum 3D7 [7]; Plasmodium falciparum, 3D7, model with Emax and γ common to humans and mice, read-out: EC50M, drug concentration to reach the half-maximum killing rate in mice) was 1.32 ng/mL (≈ 4.64 nM). The “EmaxM, maximum killing rate in mice” value (P. falciparum 3D7 [7]; [10]) was 0.74 h⁻¹.
With C[C@H]1[C@H](OC(=O)CCC(=O)O)O[C@@H]2O[C@@]3(C)CC[C@H]4[C@H](C)CC[C@@H]1[C@@]24OO3 [artesunate] the “increase in the decline in total parasitemia on increasing dose from 50 to 200 mg/kg” value [8] was 2.2 fold, the “increase in the decline in viability on increasing dose from 50 to 200 mg/kg” value ([8]; regrowth assay) was 23.9 fold and the “δH, dead parasite clearance rate in humans” value (P. falciparum 3D7 [4]; [10]) was 0.18 h⁻¹. For the same molecule, the “δH, dead parasite clearance rate in humans” value (P. falciparum 3D7 [4]; [11]) was 0.18 h⁻¹, the “δM, dead parasite clearance rate in mice” value (P. falciparum 3D7 [7]; [10]) was 0.097 h⁻¹ and the “δM, dead parasite clearance rate in mice” value (P. falciparum 3D7 [7]; [11]) was 0.097 h⁻¹.
